In experiment [1] the test system is Lewis lung carcinoma (LLC) lung metastasis. The experiment can be described thus: Lewis lung carcinoma lung metastasis model. Type of experiment: in vivo, C57 black mice. Details: Inhibitory activity in vivo, LLC tumor model (as % of total inhibition): reference not given here. Particulars: for Inhibitory activity in vivo, LLC tumor model (as % of total inhibition): 25 μg/gram, LLC murine tumor model, lung metastasis. As to the method: (vii) Lewis lung carcinoma tumor assay. Murine Lewis lung carcinoma (LLC) D122 cells (1×10^6 cells/[…] PBS) were injected into the foot pads of 10-week old C57 black mice (O'Reilly et al, 1994). Twenty five μg/g of body mass of porphyrin or corrole compound dissolved in PBS were injected IP twice a week to the treated group, and tumor size was measured periodically in order to follow primary tumor formation. In order to evaluate inhibition of lung metastasis by porphyrin or corrole compound, the primary tumors were allowed to develop over a period of six weeks to a volume of approximately 8 mm^3; after which the tumors were removed and metastases were allowed to develop for four weeks. During this time the treated group received 25 μg/g of body mass of porphyrin or corrole compound IP twice a week. Subsequently the mice were sacrificed, dissected and the lungs removed and photographed. The extent of lung metastasis was measured by weighing the lungs.
After establishing the capacity of P1 to inhibit primary tumor growth, the capacity of P1 to inhibit lung metastasis formation was measured as described in Methods, section (vi). Mice were injected with LLC cells (200,000 cells per mouse) into the foot pad and primary tumors were allowed to develop over a period of 3 to 4 weeks to a volume of approximately 8 mm^3. Subsequently, primary tumors were removed through amputation and lung metasases were allowed to develop for four weeks before the mice were sacrificed. The extent of lung metastasis at this point was examined by gross morphological examination and by determining the gain in lung weight. […] In order to quantitate the results from these experiments, the lungs from all mice were weighed and evaluated for the extent of metastatic growth.

Experiment [2] concerns the target T1, FGFR-1 alkaline phosphatase fusion protein (FRAP) (Mus musculus, UniProt P16092).
T1 construct: soluble FGFR-1 ectodomain alkaline phosphatase fusion protein (FRAP); made in house; host or cells: NIH 3T3 cells (conditioned medium)
T1 sequence (P16092 22-376 limits assumed): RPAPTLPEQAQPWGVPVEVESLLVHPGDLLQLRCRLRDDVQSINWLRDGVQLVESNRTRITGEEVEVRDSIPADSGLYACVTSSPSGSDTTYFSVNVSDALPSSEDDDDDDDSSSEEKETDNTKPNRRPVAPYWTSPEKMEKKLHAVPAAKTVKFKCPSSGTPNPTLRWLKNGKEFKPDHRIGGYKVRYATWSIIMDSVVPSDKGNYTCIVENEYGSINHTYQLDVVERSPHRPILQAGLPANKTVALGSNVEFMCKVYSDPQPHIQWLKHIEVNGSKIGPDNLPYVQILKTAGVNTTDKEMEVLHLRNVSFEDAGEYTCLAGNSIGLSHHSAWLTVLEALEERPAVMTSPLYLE
Briefly: Binding of soluble FGFR-1 alkaline phosphatase fusion protein (FRAP) to bFGF immobilized on heparin (Screen AP assay). Particulars: binding of FGF to FGFR; Methods section (ii); read-out: Screen AP assay (IC50). As to the method: (ii) Binding of soluble FGFR-1 alkaline phosphatase fusion protein (FRAP) to immobilized bFGF. […] The end-point of the assay measured enzymatically the formation of FGF-receptor complexes quantitated by the specifically associated alkaline phosphatase (AP) catalyzed chromogenic product.
Subsequently, 200 μl of FRAP condition medium and porphyrin/corrole compound were added and incubated together for 2 h.
In order to identify inhibitors of FGF-FGFR interactions, an assay for testing FGFR-ligand binding was developed. The system is composed of bFGF bound to a heparin matrix to which soluble FGFR-1 ectodomain alkaline phosphatase fusion protein (FRAP) and the screened compounds are added (see Methods, section (ii)).

The target of experiment [3] is T2, FGFR-1 (Mus musculus, UniProt P16092). The experiment can be described thus: Binding of 125I-bFGF to CHO cells expressing FGFR-1.
From the text: First we utilized a cell-free system, measuring the binding of radiolabeled bFGF to a dimeric soluble FGFR-1 fused to alkaline phosphatase. The soluble FRAP was immobilized using an anti-alkaline phosphatase antibody prebound to agarose-protein A beads (see Methods, section (iii)). As a: second experimental model, we used CHO cells deficient in heparan sulfate and genetically engineered to express FGFR-1 (Methods, section (iv)).
A further experiment concerns the target T3, soluble FGFR-1 (FRAP) (Mus musculus, UniProt P16092).
T3 sequence (P16092 22-376 limits assumed): T1 sequence (P16092 22-376 limits assumed)
Briefly: Binding of 125I-bFGF to immobilized soluble FGFR-1 (FRAP), cell-free.

In experiment [4] the target is T2, FGFR-1. Briefly: Covalent cross-linking of 125I-bFGF to CHO cells transfected with FGFR-1. Details: expressed in transfected cells; host or cells: CHO cells deficient in heparan sulfate. Type of experiment: binding. Particulars: FIG. 2. As to the method: Binding of ^125I-bFGF to confluent monolayers of PGFR-1 expressing CHO cells or ^125I-FGF9 to FGFR-3 expressing CHO cells, was performed as described in Methods, section (iv), in the presence or absence of P1 (Inhibitor). After 90 min, disuccinylimidyl suberate [DSS]
(iv) Binding of ^125I-bFGF and ^125I-FGF9 to cells. Confluent cultures of CHO cells expressing FGFR-1(Yayon et al, 1991) or FGFR-3 (Hecht et al, 1995) in 24-well plates (Falcon) were precooled and washed twice with cold DMEM supplemented with 20 mM Hepes (pH 7.5) and 0.1% bovine serum albumin (DMEM/BSA). They were then incubated for 1.5 h at 4° C. with ^125I-bFGF (2 ng/ml) and increasing concentrations of porphyrin/corrole compound. The binding medium was discarded and the cells were washed once with ice-cold DMEM/BSA and twice with cold PBS (pH 7.5) containing 1.6M NaCl. […] Non-specific binding was determined in the presence of a 100-fold excess of unlabeled bFGF.
In order to unequivocally determine the specificity of the binding inhibition, chemical cross-linking of ^125I-bFGF and ^125I-FGF9 to CHO cells transfected with FGFR-1 and FGFR-3, respectively, was carried out as described in Methods, section (iv), in the absence or presence of increasing concentrations of P1.

Setting [5] is: read-out: Cellular receptor binding (IC50), binding of FGF to FGFR, Methods section (iv).
Setting [6] is: read-out: Soluble receptor binding (IC50), binding of FGF to FGFR, Methods section (iii).

Read-outs that look alike come from different tables or passages of the source.

The term IC50 denotes the concentration that gives 50% inhibition.

T2 sequence (P16092 22-822): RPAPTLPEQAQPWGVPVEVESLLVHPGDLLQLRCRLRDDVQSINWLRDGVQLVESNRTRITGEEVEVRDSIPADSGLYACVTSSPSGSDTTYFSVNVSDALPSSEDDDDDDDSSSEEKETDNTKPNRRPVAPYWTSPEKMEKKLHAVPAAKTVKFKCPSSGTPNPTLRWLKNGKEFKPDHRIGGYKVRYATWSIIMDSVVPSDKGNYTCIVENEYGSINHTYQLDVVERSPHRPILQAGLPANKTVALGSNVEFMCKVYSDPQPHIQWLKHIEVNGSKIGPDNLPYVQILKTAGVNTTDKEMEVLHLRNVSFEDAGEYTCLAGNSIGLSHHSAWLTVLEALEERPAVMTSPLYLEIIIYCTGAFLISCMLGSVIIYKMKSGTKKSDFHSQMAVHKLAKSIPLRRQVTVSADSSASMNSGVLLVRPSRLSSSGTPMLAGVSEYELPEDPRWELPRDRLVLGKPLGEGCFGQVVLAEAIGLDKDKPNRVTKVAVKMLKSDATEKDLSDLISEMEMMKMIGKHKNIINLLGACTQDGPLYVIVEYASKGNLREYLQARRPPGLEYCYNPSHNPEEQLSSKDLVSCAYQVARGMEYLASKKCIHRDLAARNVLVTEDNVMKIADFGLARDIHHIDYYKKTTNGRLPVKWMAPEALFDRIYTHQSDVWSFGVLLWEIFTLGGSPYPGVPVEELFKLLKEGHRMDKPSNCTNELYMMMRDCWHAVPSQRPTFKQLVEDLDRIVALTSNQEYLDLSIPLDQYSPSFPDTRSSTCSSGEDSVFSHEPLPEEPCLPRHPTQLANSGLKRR
From the text for soluble FGFR-1 (FRAP): First we utilized a cell-free system, measuring the binding of radiolabeled bFGF to a dimeric soluble FGFR-1 fused to alkaline phosphatase. […] As a: second experimental model, we used CHO cells deficient in heparan sulfate and genetically engineered to express FGFR-1 (Methods, section (iv)).

Turning to `C[n+]1ccccc1-c1c2nc(c(-c3cccc[n+]3C)c3ccc([nH]3)c(-c3cccc[n+]3C)c3nc(c(-c4cccc[n+]4C)c4ccc1[nH]4)C=C3)C=C2` (single isomer, unassigned) [Compound P7, 5,10,15,20-Tetrakis-(N-methyl-2-pyridylium)-21H,23H-porphine tetraiodide], in experiment [1], the “Inhibitory activity in vivo, LLC tumor model (as % of total inhibition)” value (from here on “Inhibitory activity … (as % of total inhibition)”) is recorded as 90%.
With `COc1ccc(-c2c3nc(c(-c4ccc(OC)cc4)c4ccc([nH]4)c(-c4ccc(OC)cc4)c4nc(c(-c5ccc(OC)cc5)c5ccc2[nH]5)C=C4)C=C3)cc1` [Compound P3, 5,10,15,20-Tetrakis(4-methoxyphenyl)-21H,23H-porphine], the IC50 in experiment [2] is > 10000 nM.
As for `C[N+](C)(C)c1ccc(-c2c3nc(c(-c4ccc([N+](C)(C)C)cc4)c4ccc([nH]4)c(-c4ccc([N+](C)(C)C)cc4)c4nc(c(-c5ccc([N+](C)(C)C)cc5)c5ccc2[nH]5)C=C4)C=C3)cc1` [Compound P5, 5,10,15,20-Tetrakis[4-(trimethylammonio)phenyl]-21H,23H-porphine tetra-p-tosylate], the values for the IC50 (in experiment [2]; on FGFR-1 [3]; on soluble FGFR-1 (FRAP)) were 100 nM, 1800 nM and 900 nM, respectively. In experiment [1], the “Inhibitory activity … (as % of total inhibition)” value amounted to 75%.
On to `C[n+]1ccc(-c2c3nc(c(-c4cc[n+](C)cc4)c4ccc([nH]4)c(-c4cc[n+](C)cc4)c4nc(c(-c5cc[n+](C)cc5)c5ccc2[nH]5)C=C4)C=C3)cc1` [Compound P8, 5,10,15,20-Tetrakis-(N-methyl-4-pyridylium)-21H,23H-porphine tetraiodide], for which the IC50 in experiment [2] turned out to be 95 nM; on FGFR-1 [3] (Cellular receptor binding (IC50), binding of FGF to FGFR, Methods section (iv)), 1300 nM; at soluble FGFR-1 (FRAP) (Soluble receptor binding (IC50), binding of FGF to FGFR, Methods section (iii)) it was 950 nM. Further, the “Inhibitory activity … (as % of total inhibition)” value in experiment [1] amounted to 90%.
As to `C[n+]1ccc(C2=Cc3cc4[nH]c(cc5nc(cc6[nH]c(cc2n3)cc6-c2cc[n+](C)cc2)C=C5c2cc[n+](C)cc2)cc4-c2cc[n+](C)cc2)cc1` [Compound P10, 3,8,13,18-Tetrakis(N-methyl-4-pyridylium)-21H,23H-porphine tetraiodide], the IC50 in experiment [2] was found to be 80 nM; at FGFR-1 [3] (setting [5]) it was 1900 nM; on soluble FGFR-1 (FRAP) (setting [6]), 850 nM.
`O=C(O)c1ccc(-c2c3nc(c(-c4ccc(C(=O)O)cc4)c4ccc([nH]4)c(-c4ccc(C(=O)O)cc4)c4nc(c(-c5ccc(C(=O)O)cc5)c5ccc2[nH]5)C=C4)C=C3)cc1` [Compound P11, 5,10,15,20-Tetrakis(4-carboxylatophenyl) 21H,23H-porphine tetraammonium]: the results for the IC50 (in experiment [2]; on FGFR-1 [3]) were 500 nM and > 10000 nM, respectively.
In the case of `C[n+]1cccc(-c2c3nc(c(-c4ccc[n+](C)c4)c4ccc([nH]4)c(-c4ccc[n+](C)c4)c4nc(c(-c5ccc[n+](C)c5)c5ccc2[nH]5)C=C4)C=C3)c1.Cc1ccc(S(=O)(=O)[O-])cc1.Cc1ccc(S(=O)(=O)[O-])cc1.Cc1ccc(S(=O)(=O)[O-])cc1.Cc1ccc(S(=O)(=O)[O-])cc1` [Compound P12, 5,10,15,20-Tetrakis(N-methyl-3-pyridylium)-21H,23H-porphine tetra-p-tosylate], the “Inhibitory activity … (as % of total inhibition)” value in experiment [1] worked out at 0%. Moreover, the IC50 was > 10000 nM on FGFR-1 [3] (setting [5]) and 10000 nM at soluble FGFR-1 (FRAP) (setting [6]).
`C[n+]1cccc(-c2c3nc(c(-c4ccc[n+](C)c4)c4ccc([nH]4)c(-c4ccc[n+](C)c4)c4nc(c(-c5ccc[n+](C)c5)c5ccc2[nH]5)C=C4)C=C3)c1` [Compound P13, 5,10,15,20-Tetrakis(N-methyl-3-pyridylium)-21H,23H-porphine tetraiodide]: the IC50 at FGFR-1 [3] and on soluble FGFR-1 (FRAP) was > 10000 nM in each case.
As to `C[n+]1ccc(-c2c3nc(c(-c4c(F)c(F)c(F)c(F)c4F)c4ccc([nH]4)c(-c4cc[n+](C)cc4)c4nc(c(-c5c(F)c(F)c(F)c(F)c5F)c5ccc2[nH]5)C=C4)C=C3)cc1` [Compound P17, 5,15-Bis(pentafluorophenyl)-10,20-bis(N-methyl-4-pyridylium)-21H,23H-porphine diiodide], the “Inhibitory activity … (as % of total inhibition)” value in experiment [1] was determined as 40%. Besides, the IC50 on FGFR-1 [3] is 30 nM; at soluble FGFR-1 (FRAP) it was 20 nM.
Taken in the same sequence, the figures for `C[n+]1ccc(-c2c3nc(c(-c4cc[n+](C)cc4)c4ccc([nH]4)c(-c4c(F)c(F)c(F)c(F)c4F)c4nc(c(-c5c(F)c(F)c(F)c(F)c5F)c5ccc2[nH]5)C=C4)C=C3)cc1` [Compound P18, 5,10-Bis(pentafluorophenyl)-15,20-bis(N-methyl-4-pyridylium)-21H,23H-porphine diiodide] were 50%, 100 nM and 75 nM.
On to `C[n+]1ccc(-c2c3nc(c(-c4cc[n+](C)cc4)c4ccc([nH]4)c(-c4c(F)c(F)c(NCCCN)c(F)c4F)c4nc(c(-c5cc[n+](C)cc5)c5ccc2[nH]5)C=C4)C=C3)cc1` [Compound P19], for which the figures for the concentration for half-maximal inhibition (IC50) (in experiment [2]; on FGFR-1 [3] (setting [5])) were 100 nM and 2000 nM, respectively.
Turning to `C[n+]1ccccc1-c1c(F)c(F)c(-c2c3nc(c(-c4c(F)c(F)c(-c5cccc[n+]5C)c(F)c4F)c4ccc([nH]4)c4ccc([nH]4)c(-c4c(F)c(F)c(-c5cccc[n+]5C)c(F)c4F)c4ccc2[nH]4)C=C3)c(F)c1F` [Compound P21, 5,10,15-Tris[2,3,5,6-tetrafluorophenyl-4-(N-methyl-2-pyridylium)]-21H,23H-corrole triiodide], the “Inhibition of lung metastasis in LLC model, in words” value in experiment [1] (25 μg/g of body mass IP) is on record as “highly active in vivo”. Also, the “Inhibitory activity … (as % of total inhibition)” value in experiment [1] was determined as 200%. In addition, the “Concentration inhibiting lung metastasis formation in vivo” value in experiment [1] (mouse, in vivo) stood at 5 mg/kg body weight. Besides, the “Inhibition of bFGF binding to immobilized FRAP, in words” value at soluble FGFR-1 (FRAP) (FIG. 8B) was “inhibit bFGF binding in vitro”.
Turning to `Cc1ccc(C(=O)Nc2ccc(S(=O)(=O)O)c3cc(S(=O)(=O)O)cc(S(=O)(=O)O)c23)cc1NC(=O)c1cccc(NC(=O)Nc2cccc(C(=O)Nc3cc(C(=O)Nc4ccc(S(=O)(=O)O)c5cc(S(=O)(=O)O)cc(S(=O)(=O)O)c45)ccc3C)c2)c1` [Suramin, reference compound], at FGFR-1 [4], the “Inhibition of bFGF-receptor complex formation (cross-linking), in words” value is given as “demonstrated FGF receptor binding inhibition”.
Consider “Tetrakis(4-cumyloxyphenoxy)phthalocyanine [Compound P4]”, for which, in experiment [2], the IC50 is > 10000 nM.
